From ChEMBL document CHEMBL3400015, “Tertiary amides of Salinomycin: A new group of antibacterial agents against Bacillus anthracis and methicillin-resistant Staphylococcus epidermidis” (Bioorg Med Chem Lett, 2015)
≈ marks a conversion by molar mass, not a printed value.

Tests used:
[1] = test system: Staphylococcus epidermidis; test: Antimicrobial activity against methicillin-resistant Staphylococcus epidermidis isolate 454/11 after 18 hrs by twofold serial broth dilution method; assay type: functional; settings: isolate 454/11, 18 h
Escherichia coli [2] = test: Bactericidal activity against Escherichia coli NCTC 8196 after 24 hrs; assay type: functional; settings: NCTC 8196, 24 h, read-out: MBC99.9
[3] = test system: Staphylococcus epidermidis; test: Bactericidal activity against methicillin-resistant Staphylococcus epidermidis isolate 457/11 after 24 hrs; assay type: functional; settings: isolate 457/11, 24 h, read-out: MBC99.9
[4] = test system: Staphylococcus epidermidis; test: Bactericidal activity against methicillin-resistant Staphylococcus epidermidis isolate 454/11 after 24 hrs; assay type: functional; settings: isolate 454/11, 24 h, read-out: MBC99.9
Pseudomonas aeruginosa [5] = test: Antimicrobial activity against Pseudomonas aeruginosa ATCC 27853 after 18 hrs by twofold serial broth dilution method; assay type: functional; settings: ATCC 27853, 18 h
[6] = test system: Staphylococcus epidermidis; test: Antimicrobial activity against Staphylococcus epidermidis ATCC 12228 after 18 hrs by twofold serial broth dilution method; assay type: functional; settings: ATCC 12228, 18 h
Bacillus anthracis = test: Antimicrobial activity against Bacillus anthracis 34F2 after 18 hrs by twofold serial broth dilution method; assay type: functional; settings: 34F2, 18 h
Staphylococcus aureus [7] = test: Bactericidal activity against Staphylococcus aureus NCTC 4163 after 24 hrs; assay type: functional; settings: NCTC 4163, 24 h, read-out: MBC99.9
Staphylococcus aureus [8] = test: Bactericidal activity against Staphylococcus aureus ATCC 6538 after 24 hrs; assay type: functional; settings: ATCC 6538, 24 h, read-out: MBC99.9
Escherichia coli [9] = test: Bactericidal activity against Escherichia coli ATCC 10538 after 24 hrs; assay type: functional; settings: ATCC 10538, 24 h, read-out: MBC99.9
[10] = test system: Staphylococcus epidermidis; test: Antimicrobial activity against methicillin-resistant Staphylococcus epidermidis isolate 422/10 after 18 hrs by twofold serial broth dilution method; assay type: functional; settings: isolate 422/10, 18 h
Pseudomonas aeruginosa [11] = test: Bactericidal activity against Pseudomonas aeruginosa NCTC 6749 after 24 hrs; assay type: functional; settings: NCTC 6749, 24 h, read-out: MBC99.9
[12] = test system: Staphylococcus epidermidis; test: Bactericidal activity against methicillin-resistant Staphylococcus epidermidis isolate 460/11 after 24 hrs; assay type: functional; settings: isolate 460/11, 24 h, read-out: MBC99.9
Staphylococcus aureus [13] = test: Antimicrobial activity against Staphylococcus aureus ATCC 25923 after 18 hrs by twofold serial broth dilution method; assay type: functional; settings: ATCC 25923, 18 h
Pseudomonas aeruginosa [14] = test: Bactericidal activity against Pseudomonas aeruginosa ATCC 15442 after 24 hrs; assay type: functional; settings: ATCC 15442, 24 h, read-out: MBC99.9
Bacillus subtilis [15] = test: Genotoxicity in rec-negative Bacillus subtilis M45 at 2 ug/9 mm disc after 24 hrs by disc diffusion method; assay type: toxicity, organism-based
[16] = test system: Staphylococcus epidermidis; test: Bactericidal activity against methicillin-resistant Staphylococcus epidermidis isolate 469/11 after 24 hrs; assay type: functional; settings: isolate 469/11, 24 h, read-out: MBC99.9
[17] = test system: Staphylococcus epidermidis; test: Bactericidal activity against methicillin-resistant Staphylococcus epidermidis isolate 424/10 after 24 hrs; assay type: functional; settings: isolate 424/10, 24 h, read-out: MBC99.9
Staphylococcus aureus [18] = test: Bactericidal activity against Staphylococcus aureus ATCC 25923 after 24 hrs; assay type: functional; settings: ATCC 25923, 24 h, read-out: MBC99.9
[19] = test system: Staphylococcus epidermidis; test: Bactericidal activity against Staphylococcus epidermidis ATCC 35984 after 24 hrs; assay type: functional; settings: ATCC 35984, 24 h, read-out: MBC99.9
[20] = test system: Staphylococcus epidermidis; test: Bactericidal activity against methicillin-resistant Staphylococcus epidermidis isolate 405/10 after 24 hrs; assay type: functional; settings: isolate 405/10, 24 h, read-out: MBC99.9
[21] = test system: Staphylococcus epidermidis; test: Antimicrobial activity against methicillin-resistant Staphylococcus epidermidis isolate 424/10 after 18 hrs by twofold serial broth dilution method; assay type: functional; settings: isolate 424/10, 18 h
[22] = test system: Staphylococcus epidermidis; test: Antimicrobial activity against methicillin-resistant Staphylococcus epidermidis isolate 459/11 after 18 hrs by twofold serial broth dilution method; assay type: functional; settings: isolate 459/11, 18 h
[23] = test system: Staphylococcus epidermidis; test: Antimicrobial activity against methicillin-resistant Staphylococcus epidermidis isolate 469/11 after 18 hrs by twofold serial broth dilution method; assay type: functional; settings: isolate 469/11, 18 h
Escherichia coli [24] = test: Antimicrobial activity against Escherichia coli NCTC 8196 after 18 hrs by twofold serial broth dilution method; assay type: functional; settings: NCTC 8196, 18 h
Pseudomonas aeruginosa [25] = test: Antimicrobial activity against Pseudomonas aeruginosa NCTC 6749 after 18 hrs by twofold serial broth dilution method; assay type: functional; settings: NCTC 6749, 18 h
[26] = test system: Staphylococcus epidermidis; test: Antimicrobial activity against methicillin-resistant Staphylococcus epidermidis isolate 409/10 after 18 hrs by twofold serial broth dilution method; assay type: functional; settings: isolate 409/10, 18 h
[27] = test system: Staphylococcus epidermidis; test: Bactericidal activity against methicillin-resistant Staphylococcus epidermidis isolate 461/11 after 24 hrs; assay type: functional; settings: isolate 461/11, 24 h, read-out: MBC99.9
Escherichia coli [28] = test: Antimicrobial activity against Escherichia coli ATCC 25922 after 18 hrs by twofold serial broth dilution method; assay type: functional; settings: ATCC 25922, 18 h
[29] = test system: Staphylococcus epidermidis; test: Bactericidal activity against methicillin-resistant Staphylococcus epidermidis isolate 409/10 after 24 hrs; assay type: functional; settings: isolate 409/10, 24 h, read-out: MBC99.9
[30] = test system: Staphylococcus epidermidis; test: Antimicrobial activity against methicillin-resistant Staphylococcus epidermidis isolate 458/11 after 18 hrs by twofold serial broth dilution method; assay type: functional; settings: isolate 458/11, 18 h
Staphylococcus aureus [31] = test: Antimicrobial activity against Staphylococcus aureus NCTC 4163 after 18 hrs by twofold serial broth dilution method; assay type: functional; settings: NCTC 4163, 18 h
[32] = test system: Staphylococcus epidermidis; test: Antimicrobial activity against methicillin-resistant Staphylococcus epidermidis isolate 461/11 after 18 hrs by twofold serial broth dilution method; assay type: functional; settings: isolate 461/11, 18 h
[33] = test system: Staphylococcus epidermidis; test: Bactericidal activity against methicillin-resistant Staphylococcus epidermidis isolate 470/11 after 24 hrs; assay type: functional; settings: isolate 470/11, 24 h, read-out: MBC99.9
[34] = test system: Staphylococcus epidermidis; test: Bactericidal activity against methicillin-resistant Staphylococcus epidermidis isolate 407/10 after 24 hrs; assay type: functional; settings: isolate 407/10, 24 h, read-out: MBC99.9
[35] = test system: Staphylococcus epidermidis; test: Antimicrobial activity against methicillin-resistant Staphylococcus epidermidis isolate 470/11 after 18 hrs by twofold serial broth dilution method; assay type: functional; settings: isolate 470/11, 18 h
Staphylococcus aureus [36] = test: Bactericidal activity against Staphylococcus aureus […] after 24 hrs; assay type: functional; settings: read-out: MBC99.9
[37] = test system: Staphylococcus epidermidis; test: Antimicrobial activity against methicillin-resistant Staphylococcus epidermidis isolate 407/10 after 18 hrs by twofold serial broth dilution method; assay type: functional; settings: isolate 407/10, 18 h
Bacillus subtilis [38] = test: Genotoxicity in rec-positive Bacillus subtilis H17 at 2 ug/9 mm disc after 24 hrs by disc diffusion method; assay type: toxicity, organism-based
[39] = test system: Staphylococcus epidermidis; test: Bactericidal activity against methicillin-resistant Staphylococcus epidermidis isolate 422/10 after 24 hrs; assay type: functional; settings: isolate 422/10, 24 h, read-out: MBC99.9
[40] = test system: Staphylococcus epidermidis; test: Antimicrobial activity against methicillin-resistant Staphylococcus epidermidis isolate 404/10 after 18 hrs by twofold serial broth dilution method; assay type: functional; settings: isolate 404/10, 18 h
Pseudomonas aeruginosa [41] = test: Bactericidal activity against Pseudomonas aeruginosa ATCC 27853 after 24 hrs; assay type: functional; settings: ATCC 27853, 24 h, read-out: MBC99.9
Staphylococcus aureus [42] = test: Antimicrobial activity against Staphylococcus aureus […] after 18 hrs by twofold serial broth dilution method; assay type: functional

## CCCN(CCC)C(=O)[C@H](CC)[C@H]1CC[C@H](C)[C@H]([C@@H](C)[C@H](O)[C@H](C)C(=O)[C@H](CC)[C@H]2O[C@]3(C=C[C@@H](O)[C@]4(CC[C@@](C)([C@H]5CC[C@](O)(CC)[C@H](C)O5)O4)O3)[C@H](C)C[C@@H]2C)O1
[1]
  MIC: 4 µg/mL (≈ 4.8 µM)
Escherichia coli [2]
  MBC: > 256 µg/mL
[3]
  MBC: 256 µg/mL (≈ 307 µM)
[4]
  MBC: 128 µg/mL (≈ 153 µM)
Pseudomonas aeruginosa [5]
  MIC: > 256 µg/mL
[6]
  MIC: 2 µg/mL (≈ 2.4 µM)
Bacillus anthracis
  MIC: 4 µg/mL (≈ 4.8 µM)
Staphylococcus aureus [7]
  MBC: > 256 µg/mL
Staphylococcus aureus [8]
  MBC: 256 µg/mL (≈ 307 µM)
Escherichia coli [9]
  MBC: > 256 µg/mL
[10]
  MIC: 8 µg/mL (≈ 9.59 µM)
Pseudomonas aeruginosa [11]
  MBC: > 256 µg/mL
[12]
  MBC: 256 µg/mL (≈ 307 µM)
Staphylococcus aureus [13]
  MIC: 1 µg/mL (≈ 1.2 µM)
Pseudomonas aeruginosa [14]
  MBC: > 256 µg/mL
Bacillus subtilis [15]
  diameter of the inhibition zone (DIZ): 26 mm
[16]
  MBC: 128 µg/mL (≈ 153 µM)
[17]
  MBC: 256 µg/mL (≈ 307 µM)
Staphylococcus aureus [18]
  MBC: > 256 µg/mL
[19]
  MBC: 256 µg/mL (≈ 307 µM)
[20]
  MBC: 128 µg/mL (≈ 153 µM)
[21]
  MIC: 8 µg/mL (≈ 9.59 µM)
[22]
  MIC: 4 µg/mL (≈ 4.8 µM)
[23]
  MIC: 4 µg/mL (≈ 4.8 µM)
Escherichia coli [24]
  MIC: > 256 µg/mL
Pseudomonas aeruginosa [25]
  MIC: > 256 µg/mL
[26]
  MIC: 8 µg/mL (≈ 9.59 µM)
[27]
  MBC: 128 µg/mL (≈ 153 µM)
Escherichia coli [28]
  MIC: > 256 µg/mL
[29]
  MBC: 128 µg/mL (≈ 153 µM)
[30]
  MIC: 8 µg/mL (≈ 9.59 µM)
Staphylococcus aureus [31]
  MIC: 2 µg/mL (≈ 2.4 µM)
[32]
  MIC: 4 µg/mL (≈ 4.8 µM)
[33]
  MBC: 256 µg/mL (≈ 307 µM)
[34]
  MBC: 256 µg/mL (≈ 307 µM)
[35]
  MIC: 8 µg/mL (≈ 9.59 µM)
Staphylococcus aureus [36]
  MBC: 256 µg/mL (≈ 307 µM)
[37]
  MIC: 4 µg/mL (≈ 4.8 µM)
Bacillus subtilis [38]
  diameter of the inhibition zone (DIZ): 28 mm
[39]
  MBC: 128 µg/mL (≈ 153 µM)
[40]
  MIC: 4 µg/mL (≈ 4.8 µM)
Pseudomonas aeruginosa [41]
  MBC: > 256 µg/mL
Staphylococcus aureus [42]
  MIC: 2 µg/mL (≈ 2.4 µM)
